The source made the active and inactive calls.
Columns and labels:
[1] = fluconazole-exposed Candida albicans growth modulators – fluorescence, retest, confirmation (AID 2467); assay type: functional, cell-based
[2] = molecular target: Glucose-6-phosphate 1-dehydrogenase (Homo sapiens, UniProt P11413); assay: inhibition of Homo sapiens G6PD, dose series – biochemical, fluorescence, selectivity assay for P. falciparum G6PD inhibitor project, dose response (AID 504792); assay type: functional
[3] = Luminescence Cell-Based Dose Retest to Confirm Inhibitors of Cancer Stem Cells. [Related pubchem assays (depositor defined):AID2717, AID2721]; assay type: functional; conditions: Homo sapiens
[4] = molecular target: FAD-linked sulfhydryl oxidase ALR (Homo sapiens, UniProt P55789); assay: ALR-catalysed DTT oxidation blockers – biochemical, H2O2 detection, luminescence, cherry-pick, dose response (AID 493248)
FAD-linked sulfhydryl oxidase ALR, sequence (P55789 whole entry): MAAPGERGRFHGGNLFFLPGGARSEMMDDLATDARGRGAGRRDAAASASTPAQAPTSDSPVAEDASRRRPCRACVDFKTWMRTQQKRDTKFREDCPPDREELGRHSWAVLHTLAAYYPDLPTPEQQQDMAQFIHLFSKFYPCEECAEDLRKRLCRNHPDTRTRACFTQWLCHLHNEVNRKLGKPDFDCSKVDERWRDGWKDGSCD

[5] = NIH-3T3 fibroblast cytotoxicity, dose response, cytotoxicity control, cell-based, fluorescence, Alamar Blue, secondary assay (AID 2327); assay type: functional;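 also: NIH-3T3 mouse fibroblasts cultured with fluconazole at 8 µg/mL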
[6] = molecular target: T1, Ubiquitin-conjugating enzyme E2 N (Homo sapiens, UniProt P61088); assay type: functional;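 also: Dose-response confirmation in a TR-FRET assay detecting UBC13-driven polyubiquitin chain formation, inhibition measured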
T1 sequence (P61088 whole entry): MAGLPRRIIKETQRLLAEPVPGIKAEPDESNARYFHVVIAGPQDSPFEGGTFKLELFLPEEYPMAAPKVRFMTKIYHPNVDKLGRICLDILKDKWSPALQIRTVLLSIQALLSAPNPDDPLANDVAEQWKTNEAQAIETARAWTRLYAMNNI

Vero [7] = assay: cells; assay type: functional, cell-based; conditions: Chlorocebus sabaeus
[8] = viability of uninfected HEp-2 cells – cell-based, HTS, cytotoxicity control for RSV inhibitor project, dose response (AID 2410); assay type: functional; conditions: human respiratory syncytial virus
[9] = molecular target: Ras and Rab interactor 1/Tyrosine-protein kinase ABL1 (Homo sapiens, UniProt P00519+Q13671); assay type: functional;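 also: biochemical TR-FRET dose-response test measuring inhibition of binding between Rin1 and Abl proteins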
Ras and Rab interactor 1/Tyrosine-protein kinase ABL1, sequence (P00519 whole entry): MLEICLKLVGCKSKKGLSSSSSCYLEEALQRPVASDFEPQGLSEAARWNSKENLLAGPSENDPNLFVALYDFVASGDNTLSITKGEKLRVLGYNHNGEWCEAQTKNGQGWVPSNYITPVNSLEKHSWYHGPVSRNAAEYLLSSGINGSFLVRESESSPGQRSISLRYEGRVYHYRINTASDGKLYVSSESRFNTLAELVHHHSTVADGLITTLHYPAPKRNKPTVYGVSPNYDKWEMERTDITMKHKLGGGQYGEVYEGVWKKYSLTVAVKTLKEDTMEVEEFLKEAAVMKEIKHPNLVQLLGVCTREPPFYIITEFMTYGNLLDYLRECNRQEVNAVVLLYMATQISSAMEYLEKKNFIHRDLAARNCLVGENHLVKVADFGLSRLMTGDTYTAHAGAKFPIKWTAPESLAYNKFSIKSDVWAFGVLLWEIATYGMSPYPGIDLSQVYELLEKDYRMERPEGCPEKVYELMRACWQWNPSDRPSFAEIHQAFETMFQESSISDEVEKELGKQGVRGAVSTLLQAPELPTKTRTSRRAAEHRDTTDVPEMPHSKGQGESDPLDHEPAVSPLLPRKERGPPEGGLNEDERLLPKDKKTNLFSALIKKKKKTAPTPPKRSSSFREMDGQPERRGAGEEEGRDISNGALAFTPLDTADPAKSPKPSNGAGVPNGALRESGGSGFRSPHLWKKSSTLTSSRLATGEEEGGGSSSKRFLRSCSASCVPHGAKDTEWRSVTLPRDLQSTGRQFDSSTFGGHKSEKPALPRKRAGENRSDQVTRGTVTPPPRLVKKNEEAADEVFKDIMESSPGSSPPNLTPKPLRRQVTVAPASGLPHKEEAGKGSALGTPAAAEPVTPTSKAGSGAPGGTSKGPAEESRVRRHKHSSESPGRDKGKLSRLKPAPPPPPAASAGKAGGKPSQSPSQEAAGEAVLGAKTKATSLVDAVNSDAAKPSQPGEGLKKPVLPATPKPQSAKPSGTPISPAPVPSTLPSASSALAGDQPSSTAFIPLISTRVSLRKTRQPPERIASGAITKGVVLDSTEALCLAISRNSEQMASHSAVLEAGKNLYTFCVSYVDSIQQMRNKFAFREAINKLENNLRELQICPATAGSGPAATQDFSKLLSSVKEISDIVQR
Ras and Rab interactor 1/Tyrosine-protein kinase ABL1, sequence (Q13671 whole entry): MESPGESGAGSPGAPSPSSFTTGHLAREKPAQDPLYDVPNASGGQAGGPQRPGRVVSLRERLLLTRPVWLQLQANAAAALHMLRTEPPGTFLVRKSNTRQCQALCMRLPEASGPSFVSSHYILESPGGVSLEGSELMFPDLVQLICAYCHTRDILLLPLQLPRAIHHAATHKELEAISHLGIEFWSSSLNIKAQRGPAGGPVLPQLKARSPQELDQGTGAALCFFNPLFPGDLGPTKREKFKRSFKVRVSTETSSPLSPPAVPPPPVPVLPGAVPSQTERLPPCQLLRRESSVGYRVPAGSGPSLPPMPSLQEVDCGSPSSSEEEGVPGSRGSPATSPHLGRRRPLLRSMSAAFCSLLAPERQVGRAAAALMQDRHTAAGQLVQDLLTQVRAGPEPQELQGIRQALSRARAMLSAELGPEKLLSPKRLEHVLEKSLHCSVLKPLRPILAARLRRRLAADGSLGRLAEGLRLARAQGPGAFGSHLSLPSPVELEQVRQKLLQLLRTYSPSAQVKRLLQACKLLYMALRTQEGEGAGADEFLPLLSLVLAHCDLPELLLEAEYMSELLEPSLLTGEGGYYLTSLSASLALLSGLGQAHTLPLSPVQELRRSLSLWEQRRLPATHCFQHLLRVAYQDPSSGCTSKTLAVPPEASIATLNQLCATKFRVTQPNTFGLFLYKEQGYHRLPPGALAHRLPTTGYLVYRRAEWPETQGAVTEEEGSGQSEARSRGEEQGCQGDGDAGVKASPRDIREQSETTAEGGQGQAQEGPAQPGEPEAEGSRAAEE

Vero [10] = assay: cells; assay type: functional; conditions: Chlorocebus sabaeus
[11] = toxicity to human hepatoma HepG2 cells – cell-based, cherry-picked samples, cytotoxicity control, dose response (AID 1159577); assay type: functional
[12] = P. falciparum Dd2 growth inhibitors, dose response, SYBR Green, cherry-picked samples (AID 1159567); assay type: functional, cell-based
X-box-binding protein 1 = molecular target: T2, X-box-binding protein 1 (Homo sapiens, UniProt P17861); assay type: functional, Cricetulus griseus;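 also: confirmatory dose-response counter-screen serving a CHOP assay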
T2 sequence (P17861 whole entry): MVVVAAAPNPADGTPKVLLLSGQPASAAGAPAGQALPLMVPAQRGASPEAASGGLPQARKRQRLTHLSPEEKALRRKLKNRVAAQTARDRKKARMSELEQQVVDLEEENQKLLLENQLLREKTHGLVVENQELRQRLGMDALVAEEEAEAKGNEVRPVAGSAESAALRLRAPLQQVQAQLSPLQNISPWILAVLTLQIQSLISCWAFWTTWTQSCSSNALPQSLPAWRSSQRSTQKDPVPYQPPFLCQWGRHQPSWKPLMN

[13] = molecular target: T3, Short transient receptor potential channel 4 (Mus musculus, UniProt Q9QUQ5); assay: calcium entry via TRPC4 opening agents – cell-based, HEK293 TRPC4/mu-opioid, Fluo-4 calcium, dose response (AID 434937); assay type: functional
T3 sequence (Q9QUQ5 whole entry): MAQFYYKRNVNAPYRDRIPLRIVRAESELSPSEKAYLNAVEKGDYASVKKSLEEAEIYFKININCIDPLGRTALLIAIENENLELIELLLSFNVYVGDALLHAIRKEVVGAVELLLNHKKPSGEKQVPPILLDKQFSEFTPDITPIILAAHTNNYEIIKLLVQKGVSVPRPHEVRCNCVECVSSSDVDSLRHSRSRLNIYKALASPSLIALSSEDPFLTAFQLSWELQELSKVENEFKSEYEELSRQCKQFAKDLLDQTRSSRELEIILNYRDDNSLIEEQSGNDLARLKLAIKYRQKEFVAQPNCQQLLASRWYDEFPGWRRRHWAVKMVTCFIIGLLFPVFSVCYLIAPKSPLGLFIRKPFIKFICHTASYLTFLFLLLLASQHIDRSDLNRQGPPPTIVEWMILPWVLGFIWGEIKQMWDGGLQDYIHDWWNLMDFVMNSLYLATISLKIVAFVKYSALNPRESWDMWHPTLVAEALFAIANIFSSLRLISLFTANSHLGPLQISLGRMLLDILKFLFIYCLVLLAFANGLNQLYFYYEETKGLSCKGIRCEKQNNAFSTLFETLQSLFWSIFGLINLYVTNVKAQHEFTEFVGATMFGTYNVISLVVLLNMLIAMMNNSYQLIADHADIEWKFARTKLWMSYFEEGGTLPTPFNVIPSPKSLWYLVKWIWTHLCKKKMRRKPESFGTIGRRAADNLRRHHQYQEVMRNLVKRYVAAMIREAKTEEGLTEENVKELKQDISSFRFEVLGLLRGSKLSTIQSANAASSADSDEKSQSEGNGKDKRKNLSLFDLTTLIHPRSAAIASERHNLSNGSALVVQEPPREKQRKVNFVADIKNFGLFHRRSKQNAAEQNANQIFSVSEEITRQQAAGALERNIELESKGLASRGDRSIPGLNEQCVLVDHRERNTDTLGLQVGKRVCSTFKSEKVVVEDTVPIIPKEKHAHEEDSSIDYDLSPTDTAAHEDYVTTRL

[14] = molecular target: T4, Low molecular weight phosphotyrosine protein phosphatase (Homo sapiens, UniProt P24666); assay type: functional; conditions: read-out: IC50_Mean;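 also: Dose-response confirmation assay measuring inhibition of LMPTP enzyme activity by fluorescence intensity read-out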
T4 sequence (P24666 whole entry): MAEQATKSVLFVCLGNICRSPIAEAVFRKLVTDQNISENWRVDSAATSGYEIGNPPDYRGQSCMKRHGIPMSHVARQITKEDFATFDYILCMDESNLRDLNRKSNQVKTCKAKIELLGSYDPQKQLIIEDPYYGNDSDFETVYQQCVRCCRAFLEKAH

Estrogen receptor beta [15] = molecular target: T5, Estrogen receptor beta (Homo sapiens, UniProt Q92731);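 also: recombinant ER-beta bound to coactivator SRC1 peptide in presence of estradiol agonist; inhibitors block coactivator peptide binding and lower the FRET signal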
T5 sequence (Q92731 whole entry): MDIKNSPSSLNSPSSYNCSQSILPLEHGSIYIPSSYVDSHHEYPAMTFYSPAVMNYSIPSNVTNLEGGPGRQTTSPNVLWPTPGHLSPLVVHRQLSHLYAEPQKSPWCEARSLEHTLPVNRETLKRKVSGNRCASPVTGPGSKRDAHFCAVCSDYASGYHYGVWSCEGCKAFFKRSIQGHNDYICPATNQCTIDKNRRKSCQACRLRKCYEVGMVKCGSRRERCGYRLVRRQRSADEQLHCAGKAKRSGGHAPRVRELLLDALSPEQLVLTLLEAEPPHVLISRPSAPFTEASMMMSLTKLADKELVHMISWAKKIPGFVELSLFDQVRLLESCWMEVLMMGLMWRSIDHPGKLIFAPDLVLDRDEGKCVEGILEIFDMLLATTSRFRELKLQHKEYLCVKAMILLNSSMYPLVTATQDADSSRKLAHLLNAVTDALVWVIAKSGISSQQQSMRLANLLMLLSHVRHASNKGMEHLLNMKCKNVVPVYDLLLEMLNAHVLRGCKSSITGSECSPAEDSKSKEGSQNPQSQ

Estrogen receptor beta [16] = molecular target: T5, Estrogen receptor beta; assay: blockers of SRC-3 recruitment to ERβ – biochemical, ELISA, streptavidin-HRP readout, orthogonal assay, confirmation (AID 1060)

Glucose-6-phosphate 1-dehydrogenase, sequence (P11413 whole entry): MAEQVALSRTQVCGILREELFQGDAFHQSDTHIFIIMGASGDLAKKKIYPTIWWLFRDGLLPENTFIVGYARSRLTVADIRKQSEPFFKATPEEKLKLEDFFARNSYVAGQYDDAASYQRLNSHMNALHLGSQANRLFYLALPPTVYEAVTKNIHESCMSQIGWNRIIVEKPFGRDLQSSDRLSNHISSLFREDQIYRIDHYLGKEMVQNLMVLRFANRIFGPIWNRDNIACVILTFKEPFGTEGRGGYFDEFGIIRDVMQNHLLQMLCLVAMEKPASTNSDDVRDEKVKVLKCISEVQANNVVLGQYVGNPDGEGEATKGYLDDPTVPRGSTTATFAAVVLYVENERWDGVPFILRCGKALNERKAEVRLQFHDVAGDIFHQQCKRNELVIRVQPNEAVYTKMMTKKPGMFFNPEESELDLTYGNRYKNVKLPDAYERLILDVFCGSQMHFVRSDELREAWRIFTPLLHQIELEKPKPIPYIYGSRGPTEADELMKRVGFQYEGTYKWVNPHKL

## CC1(C)CN(c2ccccc2)N(C(=O)c2ccc(C#N)cc2)C1=O
[1]
  EC50: > 38 µM (not active)
[2]
  IC50: > 80 µM (inactive)
[3]
  AC50: 3.56 µM (active)
[4]
  AC50: 1.72 µM (active)
[5]
  EC50: 4.88 µM (active)

## O=C(CCN1C(=O)/C(=C/c2ccccc2Cl)SC1=S)NCCCN1CCOCC1
[6]
  IC50: > 20 µM (inactive)

## Cc1sc(NC(=S)NC(=O)c2ccc(C(C)(C)C)cc2)c(C#N)c1C
Vero [7]
  IC50: 13.9 µM (active)
[8]
  CC50: 46.8 µM (active)

## COC(=O)c1ccc(CSc2nnc(CNC(=O)COc3ccc(Cl)cc3)o2)o1
[9]
  IC50: 21.4 µM (inactive)

## CN(C(=O)CCN1C(=O)/C(=C/c2ccccc2)SC1=S)C1CCS(=O)(=O)C1 (stereo unspecified)
Vero [10]
  CC50: 21.2 µM (active)

## CCOc1ccccc1Nc1nnc(SC(C)C(=O)Nc2nc(-c3ccccc3)cs2)s1 (stereo unspecified)
Vero [7]
  IC50: > 12.5 µM (active)

## COc1ccc(S(=O)(=O)N2CCC3(CC2)CN(C(=O)CN(C)C)[C@@H](CO)c2c3c3ccc(OC)cc3n2C)cc1
[11]
  AC50: 18.8 µM (active)
[12]
  AC50: 2.53 µM (active)

## CC1CCCC(C)N1CCCNC(=O)C1CCCN(c2ncnc3c2nc2n3CCCCC2)C1 (stereo unspecified)
[6]
  IC50: > 20 µM (inactive)

## Cc1ccc(-n2c(O)nc3c(C(N)=O)nc(-c4ccc(C)o4)nc32)cc1
X-box-binding protein 1
  Absolute IC50 (XBP1): 10 µM

## NC1=NC2(CCN(Cc3ccccc3)CC2)n2c(nc3ccccc32)N1
[13]
  EC50: 0.299 µM (active)
[14]
  IC50: 27.1 µM (inactive)

## Cc1ccc(Cc2cncc(O)c2)cc1S(=O)(=O)O
Estrogen receptor beta [15]
  IC50: 13.5 µM (active)
Estrogen receptor beta [16]
  IC50: 0.353 µM (not active)

## Cc1c(CCO)c(=O)[nH]n1C(=O)c1c(F)cccc1F
Vero [7]
  IC50: 15.4 µM (active)
Vero [10]
  CC50: > 25 µM (active)
